According to ChEMBL document CHEMBL1139614, “Synthesis and antibacterial activity of novel (un)substituted benzotriazolyl oxazolidinone derivatives” (2005):
Values after ≈ are worked out from the molar mass of the structure shown. Active and inactive are the calls of the source. No cut-off for these calls is given here.

Tests used:
[1] = test system: Pseudomonas aeruginosa; experiment: In vitro minimum inhibitory concentration against Pseudomonas aeruginosa (ATCC 27853); format: functional
[2] = test system: Staphylococcus epidermidis; experiment: In vitro minimum inhibitory concentration against methicillin-resistant Staphylococcus epidermidis (ATCC 23760); format: functional
[3] = test system: Escherichia coli; experiment: In vitro minimum inhibitory concentration against Escherichia coli (ATCC 25922); format: functional
[4] = test system: Enterococcus faecalis; experiment: In vitro minimum inhibitory concentration against Enterococcus faecalis (ATCC 29212 and 21777); format: functional
[5] = test system: Staphylococcus aureus; experiment: In vitro minimum inhibitory concentration against methicillin-resistant Staphylococcus aureus (ST450, ATCC 15187, ICH 1 and 37); format: functional
[6] = test system: Enterococcus faecalis; experiment: In vitro minimum inhibitory concentration against Enterococcus faecalis [(VRE) ATCC 346-VRE and 5B-VRE]; format: functional
[7] = test system: Staphylococcus aureus; experiment: In vitro minimum inhibitory concentration against Staphylococcus aureus (ATCC 25923 and 29213); format: functional
[8] = test system: Staphylococcus epidermidis; experiment: In vitro minimum inhibitory concentration against Staphylococcus epidermidis (ATCC 12228); format: functional
[9] = test system: Bacillus pumilus; experiment: In vitro minimum inhibitory concentration against Bacillus pumilus (ATCC 14884); format: functional
[10] = test system: Salmonella enterica subsp. enterica serovar Abony; experiment: In vitro minimum inhibitory concentration against Salmonella abony (NCTC 6017); format: functional
[11] = test system: Enterococcus faecium; experiment: In vitro minimum inhibitory concentration against Enterococcus faecium (6A-VRE); format: functional
[12] = test system: Staphylococcus saprophyticus; experiment: In vitro minimum inhibitory concentration against Staphylococcus saprophyticus (ATCC 15305); format: functional
[13] = test system: Enterococcus faecalis; experiment: In vitro minimum inhibitory concentration against Enterococcus faecalis (ATCC 29212 and 21777); NA= Not active in preliminary screening up to 50 ug/mL; format: functional, organism-based
[14] = test system: Staphylococcus epidermidis; experiment: In vitro minimum inhibitory concentration against methicillin-resistant Staphylococcus epidermidis (ATCC 23760); NA= Not active in preliminary screening up to 50 ug/mL; format: functional, organism-based
[15] = test system: Enterococcus faecalis; experiment: In vitro minimum inhibitory concentration against Enterococcus faecalis [(VRE) ATCC 346-VRE and 5B-VRE]; NA= Not active in preliminary screening up to 50 ug/mL; format: functional, organism-based
[16] = test system: Pseudomonas aeruginosa; experiment: In vitro minimum inhibitory concentration against Pseudomonas aeruginosa (ATCC 27853); NA= Not active in preliminary screening up to 50 ug/mL; format: functional, organism-based
[17] = test system: Staphylococcus aureus; experiment: In vitro minimum inhibitory concentration against methicillin-resistant Staphylococcus aureus (ST450, ATCC 15187, ICH 1 and 37); NA= Not active in preliminary screening up to 50 ug/mL; format: functional, organism-based
[18] = test system: Staphylococcus epidermidis; experiment: In vitro minimum inhibitory concentration against Staphylococcus epidermidis (ATCC 12228); NA= Not active in preliminary screening up to 50 ug/mL; format: functional, organism-based
[19] = test system: Bacillus pumilus; experiment: In vitro minimum inhibitory concentration against Bacillus pumilus (ATCC 14884); NA= Not active in preliminary screening up to 50 ug/mL; format: functional, organism-based
[20] = test system: Escherichia coli; experiment: In vitro minimum inhibitory concentration against Escherichia coli (ATCC 25922); NA= Not active in preliminary screening up to 50 ug/mL; format: functional, organism-based
[21] = test system: Salmonella enterica subsp. enterica serovar Abony; experiment: In vitro minimum inhibitory concentration against Salmonella abony (NCTC 6017); NA= Not active in preliminary screening up to 50 ug/mL; format: functional, organism-based
[22] = test system: Staphylococcus saprophyticus; experiment: In vitro minimum inhibitory concentration against Staphylococcus saprophyticus (ATCC 15305); NA= Not active in preliminary screening up to 50 ug/mL; format: functional, organism-based
[23] = test system: Staphylococcus aureus; experiment: In vitro minimum inhibitory concentration against Staphylococcus aureus (ATCC 25923 and 29213); NA= Not active in preliminary screening up to 50 ug/mL; format: functional, organism-based
[24] = test system: Enterococcus faecium; experiment: In vitro minimum inhibitory concentration against Enterococcus faecium (6A-VRE); NA= Not active in preliminary screening up to 50 ug/mL; format: functional, organism-based

Compound | MIC [1] [µg/mL] | MIC [2] [µg/mL] | MIC [3] [µg/mL] | MIC [4] [µg/mL] | MIC [5] [µg/mL] | MIC [6] [µg/mL] | MIC [7] [µg/mL] | MIC [8] [µg/mL] | MIC [9] [µg/mL] | MIC [10] [µg/mL] | MIC [11] [µg/mL] | MIC [12] [µg/mL] | other results
CCN(CC)CC/N=C(\S)NC[C@H]1CN(c2ccc(-n3nnc4ccccc43)c(F)c2)C(=O)O1 | > 16 | > 16 | > 16 | > 16 | > 16 | > 16 | > 16 | > 16 | > 16 | > 16 | > 16 |  | 
O=C1O[C@@H](C/N=C(\S)OCCO)CN1c1ccc(-n2nnc3ccccc32)c(F)c1 | > 16 | > 16 | > 16 | > 16 | > 16 | > 16 | > 16 | > 16 | > 16 | > 16 | > 16 |  | 
COC(=O)c1ccc2c(c1)nnn2-c1ccc(N2C[C@H](C/N=C(\S)OC)OC2=O)cc1F | > 16 | 0.125 (≈ 0.272 µM) | > 16 | 0.125 (≈ 0.272 µM) | 0.25 (≈ 0.544 µM) | 0.25 (≈ 0.544 µM) | 0.25 (≈ 0.544 µM) | 0.25 (≈ 0.544 µM) |  |  | 0.25 (≈ 0.544 µM) | 0.25 (≈ 0.544 µM) | 
O=C1O[C@@H](C/N=C(\S)OCC(F)(F)F)CN1c1ccc(-n2nnc3ccccc32)c(F)c1 |  |  |  |  |  |  |  |  |  |  |  |  | MIC [13]: inactive; MIC [14]: inactive; MIC [15]: inactive; MIC [16]: inactive; MIC [17]: inactive; MIC [18]: inactive; MIC [19]: inactive; MIC [20]: inactive; MIC [21]: inactive; MIC [22]: inactive; MIC [23]: inactive; MIC [24]: inactive
CN(C)CCO/C(S)=N/C[C@H]1CN(c2ccc(-n3nnc4ccccc43)c(F)c2)C(=O)O1 | > 16 | > 16 | > 16 | > 16 | > 16 | > 16 | > 16 | > 16 | > 16 | > 16 | > 16 | > 16 | 
CC(=O)NC[C@H]1CN(c2ccc(N3CCOCC3)c(F)c2)C(=O)O1 [LINEZOLID] | > 16 | 2 (≈ 5.93 µM) | > 16 |  |  |  |  | 2 (≈ 5.93 µM) |  | > 16 | 2 (≈ 5.93 µM) | > 16 | 
